The results in this text go back to patent US11130756B2, “[1,2,4]Triazolo[4,3-A]pyridinyl substituted indole compounds” (BRISTOL-MYERS SQUIBB COMPANY, priority 2017, dated 2021).

Common to all, as to type: cell-based
One assay deals with T1, human TLR9 (Homo sapiens, UniProt Q9NR96).
T1 construct: host or cells: HEK-Blue cells
T1 sequence (Q9NR96 26-1032): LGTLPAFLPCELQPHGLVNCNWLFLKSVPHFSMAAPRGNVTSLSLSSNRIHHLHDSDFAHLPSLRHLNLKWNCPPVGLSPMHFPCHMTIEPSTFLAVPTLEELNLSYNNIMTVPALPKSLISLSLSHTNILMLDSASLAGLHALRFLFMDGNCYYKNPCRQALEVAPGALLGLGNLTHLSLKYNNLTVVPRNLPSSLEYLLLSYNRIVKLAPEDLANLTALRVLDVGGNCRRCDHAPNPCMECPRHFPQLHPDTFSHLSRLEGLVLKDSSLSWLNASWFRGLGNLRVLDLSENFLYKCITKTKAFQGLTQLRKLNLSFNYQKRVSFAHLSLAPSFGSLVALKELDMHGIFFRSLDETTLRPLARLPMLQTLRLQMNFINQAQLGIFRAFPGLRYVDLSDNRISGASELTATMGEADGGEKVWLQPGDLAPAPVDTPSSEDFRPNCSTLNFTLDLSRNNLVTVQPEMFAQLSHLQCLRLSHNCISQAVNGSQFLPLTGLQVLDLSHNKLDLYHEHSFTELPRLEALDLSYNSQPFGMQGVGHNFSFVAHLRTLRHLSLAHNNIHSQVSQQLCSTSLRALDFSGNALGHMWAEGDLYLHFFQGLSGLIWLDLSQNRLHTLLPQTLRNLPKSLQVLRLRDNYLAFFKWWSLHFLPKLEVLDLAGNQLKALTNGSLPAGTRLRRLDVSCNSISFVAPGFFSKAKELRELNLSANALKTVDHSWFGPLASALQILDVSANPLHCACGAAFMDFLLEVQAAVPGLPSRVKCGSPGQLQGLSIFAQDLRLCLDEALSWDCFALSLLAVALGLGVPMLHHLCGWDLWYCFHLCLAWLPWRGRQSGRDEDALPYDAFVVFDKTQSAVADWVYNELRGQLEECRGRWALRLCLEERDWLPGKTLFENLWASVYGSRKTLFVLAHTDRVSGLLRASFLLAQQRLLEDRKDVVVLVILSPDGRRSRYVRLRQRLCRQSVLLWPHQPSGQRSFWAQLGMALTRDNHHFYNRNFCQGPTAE
The assay can be described thus: TLR9 inhibition reporter assay (HEK-Blue, SEAP). The conditions noted are these: HEK-Blue cells overexpressing human TLR9, ODN2006 5 nM, 22 hour incubation. The procedure, abridged: (§1)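 Compound treatment: 30 min, RT, 0.05 nM–50 μM final. Agonist: TLR7 gardiquimod 7.5 μM; TLR8 R848 15.9 μM; TLR9 ODN2006 5 nM. Incubation 22 h, 37 °C, 5% CO2. Readout SEAP, HEK-Blue Detection.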
(In general: Reporter assays use an easily measured gene product as a stand-in for the process of interest.)

Another assay deals with T2, human TLR8 (Homo sapiens, UniProt Q9NR97).
T2 construct: host or cells: HEK-Blue cells
T2 sequence (Q9NR97 27-1041): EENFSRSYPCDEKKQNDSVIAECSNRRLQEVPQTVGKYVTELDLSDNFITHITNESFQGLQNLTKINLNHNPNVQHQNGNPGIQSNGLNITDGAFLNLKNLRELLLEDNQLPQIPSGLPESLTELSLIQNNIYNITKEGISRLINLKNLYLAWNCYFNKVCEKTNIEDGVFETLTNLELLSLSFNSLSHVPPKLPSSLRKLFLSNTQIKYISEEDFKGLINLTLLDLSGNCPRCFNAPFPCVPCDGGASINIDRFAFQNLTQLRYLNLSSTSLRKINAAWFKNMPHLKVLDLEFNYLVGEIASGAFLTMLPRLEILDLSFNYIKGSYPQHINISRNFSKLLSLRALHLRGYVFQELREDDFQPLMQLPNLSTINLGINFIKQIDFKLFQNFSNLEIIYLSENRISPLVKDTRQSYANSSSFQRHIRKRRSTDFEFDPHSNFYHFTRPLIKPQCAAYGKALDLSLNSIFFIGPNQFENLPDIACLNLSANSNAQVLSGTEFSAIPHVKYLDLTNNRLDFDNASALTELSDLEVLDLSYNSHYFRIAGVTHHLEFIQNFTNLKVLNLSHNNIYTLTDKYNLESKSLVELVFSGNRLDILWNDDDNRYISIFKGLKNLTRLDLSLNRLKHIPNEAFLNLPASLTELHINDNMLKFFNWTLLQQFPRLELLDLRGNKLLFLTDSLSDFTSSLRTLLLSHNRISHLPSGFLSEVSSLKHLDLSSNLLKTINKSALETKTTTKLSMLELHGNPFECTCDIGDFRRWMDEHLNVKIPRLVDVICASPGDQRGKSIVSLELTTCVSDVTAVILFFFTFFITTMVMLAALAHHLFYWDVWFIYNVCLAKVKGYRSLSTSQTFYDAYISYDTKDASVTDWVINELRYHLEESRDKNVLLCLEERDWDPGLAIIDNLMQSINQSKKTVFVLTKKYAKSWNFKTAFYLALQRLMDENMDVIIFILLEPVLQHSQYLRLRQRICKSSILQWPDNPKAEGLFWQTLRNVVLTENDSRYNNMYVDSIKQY
Nature of the assay: TLR8 inhibition reporter assay (HEK-Blue, SEAP). The following applies: HEK-Blue cells overexpressing human TLR8, R848 15.9 μM, 22 hour incubation. A digest of the protocol:
as §1

In a further assay the target is T3, human TLR7 (Homo sapiens, UniProt Q9NYK1).
T3 construct: host or cells: HEK-Blue cells
T3 sequence (Q9NYK1 27-1049): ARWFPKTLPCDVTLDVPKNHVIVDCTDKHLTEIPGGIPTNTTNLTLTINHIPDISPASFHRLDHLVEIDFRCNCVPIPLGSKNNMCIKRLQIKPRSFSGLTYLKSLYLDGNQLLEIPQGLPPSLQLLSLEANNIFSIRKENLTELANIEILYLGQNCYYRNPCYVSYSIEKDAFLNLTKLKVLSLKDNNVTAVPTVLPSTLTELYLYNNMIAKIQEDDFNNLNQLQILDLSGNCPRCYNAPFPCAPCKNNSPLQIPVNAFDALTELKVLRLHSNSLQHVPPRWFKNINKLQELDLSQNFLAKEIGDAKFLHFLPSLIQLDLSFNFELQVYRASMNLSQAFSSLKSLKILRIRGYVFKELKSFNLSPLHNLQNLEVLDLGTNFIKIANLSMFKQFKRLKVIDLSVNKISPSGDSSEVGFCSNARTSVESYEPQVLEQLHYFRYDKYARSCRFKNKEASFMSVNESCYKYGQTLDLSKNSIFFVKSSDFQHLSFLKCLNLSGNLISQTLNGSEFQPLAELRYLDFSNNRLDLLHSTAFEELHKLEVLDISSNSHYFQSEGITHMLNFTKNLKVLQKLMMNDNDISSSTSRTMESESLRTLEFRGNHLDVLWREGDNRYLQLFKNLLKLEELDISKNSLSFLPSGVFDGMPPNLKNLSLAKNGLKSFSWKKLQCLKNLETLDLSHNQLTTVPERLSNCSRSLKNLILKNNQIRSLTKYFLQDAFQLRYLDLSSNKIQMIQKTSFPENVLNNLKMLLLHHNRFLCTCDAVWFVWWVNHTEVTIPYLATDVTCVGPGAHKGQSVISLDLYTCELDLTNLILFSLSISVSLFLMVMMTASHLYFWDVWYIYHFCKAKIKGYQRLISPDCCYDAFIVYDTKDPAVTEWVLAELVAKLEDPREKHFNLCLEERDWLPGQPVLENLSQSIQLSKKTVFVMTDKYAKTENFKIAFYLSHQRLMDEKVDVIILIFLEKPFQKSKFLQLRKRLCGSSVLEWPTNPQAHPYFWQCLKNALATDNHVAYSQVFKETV
Nature of the assay: TLR7 inhibition reporter assay (HEK-Blue, SEAP). The following applies: HEK-Blue cells overexpressing human TLR7, gardiquimod 7.5 μM, 22 hour incubation. The procedure, abridged:
as §1

Regarding `COc1cc(-c2[nH]c3ccc(C4CCN(CC(=O)N(C)C)CC4)cc3c2C(C)C)cn2cnnc12` [Example 54, 2-(4-(3-isopropyl-2-(8-methoxy-[1,2,4]triazolo[4,3-a]pyridin-6-yl)-1H-indol-5-yl)piperidin-1-yl)-N,N-dimethylacetamide], the IC50 against human TLR9 amounted to 99 nM; against human TLR8, 19.5 nM; against human TLR7, 1.9 nM.

As to `COc1cc(-c2[nH]c3ccc(C4CCN(CCCC(F)(F)F)CC4)cc3c2C(C)C)cn2cnnc12` [Example 55, 6-(3-isopropyl-5-(1-(4,4,4-trifluorobutyl)piperidin-4-yl)-1H-indol-2-yl)-8-methoxy-[1,2,4]triazolo[4,3-a] pyridine], the IC50 against human TLR9 was 1100 nM; against human TLR8, 10.6 nM; at human TLR7, 0.9 nM.

Consider `Cc1c(-c2[nH]c3ccc(C4CCN(CCN5CCOC5=O)CC4)cc3c2C(C)C)cn2cnnc2c1C` [Example 56, 3-(2-(4-(2-(7,8-dimethyl-[1,2,4]triazolo[4,3-a]pyridin-6-yl)-3-isopropyl-1H-indol-5-yl)piperidin-1-yl)ethyl)oxazolidin-2-one], for which the IC50 against human TLR9 worked out at 196 nM; against human TLR8, 7.9 nM; at human TLR7, 0.5 nM.

As for `Cc1c(-c2[nH]c3ccc(C4CCN(CCN5CCCC5=O)CC4)cc3c2C(C)C)cn2cnnc2c1C` [Example 57, 1-(2-(4-(2-(7,8-dimethyl-[1,2,4]triazolo[4,3-a]pyridin-6-yl)-3-isopropyl-1H-indol-5-yl)piperidin-1-yl)ethyl) pyrrolidin-2-one], the values for the IC50 on human TLR9, against human TLR8 and at human TLR7 were 1300 nM, 13 nM and 5 nM, respectively.

For the compound `Cc1cc(-c2[nH]c3ccc(C4CCN(CC(C)(C)O)CC4)cc3c2C(C)C)cn2cnnc12` [Example 58, 1-(4-(3-isopropyl-2-(8-methyl-[1,2,4]triazolo[4,3-a]pyridin-6-yl)-1H-indol-5-yl)piperidin-1-yl)-2-methylpropan-2-ol], the IC50 came out at 1750 nM at human TLR9, 0.9 nM against human TLR8 and 0.8 nM on human TLR7.

As to `Cc1cc(-c2[nH]c3ccc(C4CCN(CC(C)(C)O)CC4)cc3c2C(C)C)c(C)n2cnnc12` [Example 59, 1-(4-(2-(5,8-dimethyl-[1,2,4]triazolo[4,3-a]pyridin-6-yl)-3-isopropyl-1H-indol-5-yl)piperidin-1-yl)-2-methylpropan-2-ol], the IC50 against human TLR9 stood at 3430 nM; at human TLR8, 3.1 nM; at human TLR7, 81.7 nM.

For the compound `Cc1c(-c2[nH]c3ccc(C4CCN(CC(C)(C)O)CC4)cc3c2C(C)C)cn2cnnc2c1C` [Example 60, 1-(4-(2-(7,8-dimethyl-[1,2,4]triazolo[4,3-a]pyridin-6-yl)-3-isopropyl-1H-indol-5-yl)piperidin-1-yl)-2-methylpropan-2-ol], the IC50 at human TLR9 was 2900 nM; on human TLR8, 4.3 nM; against human TLR7, 1.7 nM.

Turning to `Cc1c(-c2[nH]c3ccc(C4CCN(CC(C)(C)O)CC4)cc3c2C(C)C)cn2cnnc2c1Cl` [Example 61, 1-(4-(2-(8-chloro-7-methyl-[1,2,4]triazolo [4,3-a]pyridin-6-yl)-3-isopropyl-1H-indol-5-yl)piperidin-1-yl)-2-methylpropan-2-ol], the IC50 against human TLR9 was 2270 nM; on human TLR8 it was 4.6 nM; against human TLR7 it was 0.9 nM.

For `Cc1cc(-c2[nH]c3ccc(C4CCN(C5COC5)CC4)cc3c2C(C)C)cn2cnnc12` [Example 63, 6-(3-isopropyl-5-(1-(oxetan-3-yl)piperidin-4-yl)-1H-indol-2-yl)-8-methyl-[1,2,4]triazolo[4,3-a]pyridine], the IC50 at human TLR9 is 10800 nM; on human TLR8, 7.6 nM; on human TLR7, 1.7 nM.

With `CC(C)c1c(-c2ccc3nncn3c2)[nH]c2ccc(C3CCN(C4CCOCC4)CC3)cc12` [Example 64, 6-(3-isopropyl-5-(1-(tetrahydro-2H-pyran-4-yl)piperidin-4-yl)-1H-indol-2-yl)-[1,2,4]triazolo[4,3-a]pyridine], the concentration for half-maximal inhibition (IC50) on human TLR9 came to 677 nM; at human TLR8, 147 nM; against human TLR7, 24.7 nM.

Turning to `CC(C)c1c(-c2ccc3nncn3c2)[nH]c2ccc(C3CCN(C4COC4)CC3)cc12` [Example 65, 6-(3-isopropyl-5-(1-(oxetan-3-yl)piperidin-4-yl)-1H-indol-2-yl)-[1,2,4]triazolo[4,3-a]pyridine], the half-inhibitory concentration (IC50) on human TLR9 turned out to be 15100 nM; against human TLR8 it was 341 nM; against human TLR7, 21.8 nM.

For the compound `Cc1cc2nncn2cc1-c1[nH]c2ccc(C3CCN(C4COC4)CC3)cc2c1C(C)C` [Example 66, 6-(3-isopropyl-5-(1-(oxetan-3-yl)piperidin-4-yl)-1H-indol-2-yl)-7-methyl-[1,2,4]triazolo[4,3-a]pyridine], the IC50 against human TLR9 stood at 18600 nM; against human TLR8, 1030 nM; against human TLR7, 55.5 nM.

The term IC50 denotes the concentration that inhibits the measured activity by half.
